Here are results for two compounds from patent publication US9855345B2, “Method for producing lipoplex for topical administration and antitumor agent using such lipoplex” (DELTA-FLY PHARMA, INC., priority 2014, dated 2018).

Entries after “also recorded” stand apart in the source; their conditions may differ.

A short description of data set [1]: TS-shRNA concentration in ascites and blood by RT-PCR after intraperitoneal lipoplex administration. To be noted: after i.p. administration of lipoplex (novel preparation (2)), ovarian cancer peritoneal metastasis mouse model. The data set is classed as in vivo, BALB/c nu/nu mice.
Data set [2] has as its system Luciferase-expressing human pancreatic cancer cells PANC-1. In words: Therapeutic effect on peritoneal dissemination of pancreatic cancer (IVIS luciferase activity, survival). Particulars: PANC-1-luc model, lipoplex i.p. 20 μg TS-shRNA/mouse, Paclitaxel i.p. 10 mg/kg, days 8, 11, 14, 17, IVIS days 7-25. Format: in vivo, BALB/c nu/nu mice. As for the experimental part: The therapeutic effects of the TS-shRNA-carrying lipoplex (i.e., novel preparation (2)) prepared in the same manner as in Example 1 on peritoneal dissemination of pancreatic cancer were evaluated.
Luciferase-expressing human pancreatic cancer cells PANC-1 (PANC-1-luc, Pharmaron) were cultured and transplanted intraperitoneally into BALB/c nu/nu mice (6- to 8-week-old, female, Beijing HFK Bio-Technology Co., Ltd.) at 1.0×10^7 cells/mouse to prepare mouse models for peritoneal dissemination of PANC-1-luc.
In Example 7, the lipoplex (novel preparation (2)), Paclitaxel (Taxol, Pharmaron), or the lipoplex (novel preparation (2)) in combination with Paclitaxel was administered to different mouse models. A 9% sucrose solution was administered to the control group.
The lipoplex (novel preparation (2)) was administered intraperitoneally to mouse models in such a manner that 20 μg of TS-shRNA would be administered to each mouse per day, and such administration was carried out four times in total (i.e., 8, 11, 14, and 17 days after the cell transplantation). Paclitaxel was administered intraperitoneally to the relevant group of mouse models four times in total (i.e., 8, 11, 14, and 17 days after the cell transplantation) at 10 mg/kg. […]

Consider “TS-shRNA: TS-targeting shRNA, SEQ ID NO: 8, 5′-GUAACACCAUCGAUCAUGAUAGUGCUCCUGGUUGUCAUGAUCGAUGGUGUUACUU-3′ (shRNA hairpin in lipoplex, chemistry not given here)”, for which, in data set [1], the “half-life of TS-shRNA in the ascites” value is “approximately 8 hours” and the “leakage of TS-shRNA into the blood” value was “had not leaked”.

As to `CC(=O)O[C@H]1C(=O)[C@@]2(C)[C@H]([C@H](OC(=O)c3ccccc3)[C@]3(O)C[C@H](OC(=O)[C@H](O)[C@@H](NC(=O)c4ccccc4)c4ccccc4)C(C)=C1C3(C)C)[C@]1(OC(C)=O)CO[C@@H]1C[C@@H]2O` [Paclitaxel], in data set [2], the “increase in luciferase activity (tumor growth in the abdominal cavity) compared with the control group” value is “suppressed; also recorded: strong tumor suppression effects”.
